Experimental data as given in patent US20250332264A1, “GhR-BINDING PEPTIDE AND COMPOSITION COMPRISING SAME” (priority 2021, published 2025).
Starred links: 1 amine or outer side, 2 acyl side, 3 side chain; linkers in the order of their positions; H or OH if unused. Positions of bridges follow the written chain, without caps; N, C: chain ends. Non-standard residues stand in square brackets, D forms with d. Residues, ends and D or L forms follow the SMILES beside them. Groups on a side chain read outwards from the residue. *: point of attachment. X3 = NC(=O)[C@H](CCCCN*)NC(=O)CC[C@H](NC(=O)CC[C@H](NC(=O)CCCCCCCCCCCCCCC(=O)O)C(=O)O)C(=O)O; X10 = NC(=O)[C@H](CCCCN*)NC(=O)CC[C@H](NC(=O)CC[C@H](NC(=O)CCCc1ccc(I)cc1)C(=O)O)C(=O)O; Trp(1-CH2CO) = O=C([C@H](Cc1cn(CC(=O)[*:3])c2ccccc12)N[*:1])[*:2]; Trp(5-OMe) = COc1ccc2[nH]cc(C[C@H](N)C(=O)O)c2c1; Butanoyl(4-(4-I-phenyl)) = O=C(CCCc1ccc(I)cc1)*; Trp(5-OH) = N[C@@H](Cc1c[nH]c2ccc(O)cc12)C(=O)O; Phe(4-COOH) = N[C@@H](Cc1ccc(C(=O)O)cc1)C(=O)O; Trp(7-aza) = N[C@@H](Cc1c[nH]c2ncccc12)C(=O)O; Piperazinyl(4-CH2COOH) = O=C(O)CN1CCN(*)CC1; X7 = O=C(O)CN1CCC(N[*:1])(C(=O)[*:2])CC1; γGlu = O=C(O)[C@H](CCC(=O)[*:2])N[*:1]; NMeK = CN[C@@H](CCCCN)C(=O)O; Aib = CC(C)(N)C(=O)O; CO = O=C([*:1])[*:2]

Biological target: T1, Recombinant human GhR-Fc protein (Homo sapiens, UniProt P10912)
T1 construct: purchased R&D Systems
T1 sequence (P10912 with tags, fused parts or gaps limits assumed): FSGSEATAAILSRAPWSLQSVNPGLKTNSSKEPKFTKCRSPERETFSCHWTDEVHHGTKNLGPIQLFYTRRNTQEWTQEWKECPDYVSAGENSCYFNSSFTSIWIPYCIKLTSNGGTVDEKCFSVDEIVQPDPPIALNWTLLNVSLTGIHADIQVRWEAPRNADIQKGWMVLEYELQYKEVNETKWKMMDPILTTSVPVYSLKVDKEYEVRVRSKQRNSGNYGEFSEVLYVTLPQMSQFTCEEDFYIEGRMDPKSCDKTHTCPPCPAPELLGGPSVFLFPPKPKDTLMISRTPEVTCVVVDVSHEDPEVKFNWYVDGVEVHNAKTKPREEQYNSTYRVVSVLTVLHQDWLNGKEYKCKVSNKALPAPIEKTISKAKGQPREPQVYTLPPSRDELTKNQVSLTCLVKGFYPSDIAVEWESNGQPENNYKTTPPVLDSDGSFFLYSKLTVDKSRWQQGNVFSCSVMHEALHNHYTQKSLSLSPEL
Test: Binding activity of hGhR binding peptide by surface plasmon resonance (SPR), Biacore T200, single-cycle kinetics
Details: human GhR-Fc immobilized on CM5 chip, KD calculated from ka and kd
Method: SPR assay was performed using Biacore T200 (cytiva: Former GE Healthcare). After the equilibration of Series S Sensor Chip CM5 (produced by cytiva: Former GE Healthcare) with Running Buffer (HBS-EP with 1% (v/v) DMSO), an EDC/NHS mixture was injected at a flow rate of 10 μL/min for 7 minutes to thereby activate the functional groups on sensor chip. Recombinant human GhR-Fc protein (R&D Systems) in 10 mM Acetate (pH4.0) was injected immobilized to at a flow rate of 5 μL/min. It took 7 minutes to immobilize the GhR on the substrate surfaces of the sensor chip. Then Ethanolamine was injected at a flow rate of 10 μL/min for 7 minutes. 1M Ethanolamine (aq.) was injected at a flow rate of 10 μL/min for 420 seconds for capping.
Using these Peptide Samples, kinetics of peptides against human GhR-Fc protein were measured. The method adopted for sample measurement was a single-cycle kinetics method. The analysis was conducted using the evaluation software provided with Biacore T200. A DMSO correction curve obtained by solvent correction measurements was applied for the analysis. Kinetics fitting was done on the difference data obtained by subtracting the baseline data from sample measurement data. KD values were calculated based on the association rate constant (ka) and dissociation rate constant (kd).
Furthermore, “obs. m/z [M+2H]2+” indicates the ESI-MS(+) observed value. Unless otherwise specified, this is bivalent ([M+2H]^2+).

| Structure (SMILES) | Kd |
| --- | --- |
| COc1ccc2[nH]cc(C[C@@H]3NC(=O)[C@H](CC(N)=O)NC(=O)[C@H](CO)NC(=O)[C@H](C(C)C)NC(=O)[C@H](C(C)C)NC(=O)[C@H](CCCCNC(=O)CC[C@H](NC(=O)CC[C@H](NC(=O)CCCc4ccc(I)cc4)C(=O)O)C(=O)O)N(C)C(=O)[C@H](Cc4ccc(O)cc4)NC(=O)CSC[C@@H](C(=O)NCC(=O)N4CCC[C@H]4C(=O)N[C@H](CO)C(=O)N[C@H](CO)C(=O)N[C@H](CO)C(N)=O)NC(=O)[C@H](C(C)C)NC(=O)C(C)(C)NC(=O)[C@H](Cc4c[nH]c5ccc(O)cc45)NC(=O)[C@H](CCCCNC(=O)N4CCN(CC(=O)O)CC4)NC(=O)[C@H](Cc4ccc(C(=O)O)cc4)NC3=O)c2c1 [Compound 49] ({CH2CO}-Y[NMeK]([γGlu-γGlu-Butanoyl(4-(4-I-phenyl))])VVSN[Trp(5-OMe)][Phe(4-COOH)]K([CO-Piperazinyl(4-CH2COOH)])[Trp(5-OH)][Aib]VCGP[dS][dS][dS]-NH2; thioether N-13) | 6.31 nM |
| CC(C)[C@@H]1NC(=O)[C@H](C(C)C)NC(=O)[C@H](CCCCNC(=O)CC[C@H](NC(=O)CCCc2ccc(I)cc2)C(=O)O)N(C)C(=O)[C@H](Cc2ccc(O)cc2)NC(=O)CSC[C@@H](C(N)=O)NC(=O)[C@H](C(C)C)NC(=O)C(C)(C)NC(=O)[C@H](Cc2c[nH]c3ccc(O)cc23)NC(=O)[C@H](CCCCN)NC(=O)[C@H](Cc2ccc(C(=O)O)cc2)NC(=O)[C@H](Cc2c[nH]c3ncccc23)NC(=O)[C@H](CC(N)=O)NC(=O)[C@H](CO)NC1=O [Compound 43] ({CH2CO}-Y[NMeK]([γGlu-Butanoyl(4-(4-I-phenyl))])VVSN[Trp(7-aza)][Phe(4-COOH)]K[Trp(5-OH)][Aib]VC-NH2; thioether N-13) | 3.95 nM |
| CC(C)[C@@H]1NC(=O)[C@H](C(C)C)NC(=O)[C@@H]2CCCCNC(=O)Cn3cc(c4ccccc43)C[C@H](NC(=O)[C@H](CC(N)=O)NC(=O)[C@H](CO)NC1=O)C(=O)N[C@@H](Cc1ccc(C(=O)O)cc1)C(=O)N[C@@H](CCCCNC(=O)N1CCN(CC(=O)O)CC1)C(=O)N[C@@H](Cc1c[nH]c3ccc(O)cc13)C(=O)NC(C)(C)C(=O)N[C@@H](C(C)C)C(=O)N[C@H](C(=O)NCCCC[C@H](NC(=O)CC[C@H](NC(=O)CC[C@H](NC(=O)CCCCCCCCCCCCCCC(=O)O)C(=O)O)C(=O)O)C(N)=O)CSCC(=O)N[C@@H](Cc1ccc(O)cc1)C(=O)N2C [Compound 22] ({CH2CO}-Y[NMeK]VVSN[Trp(1-CH2CO)][Phe(4-COOH)]K([CO-Piperazinyl(4-CH2COOH)])[Trp(5-OH)][Aib]VC-X3; lactam 2-7; thioether N-13) | 11.2 nM |

Now those with a lower Kd, led by results:

| Kd | Structure (SMILES) |
| --- | --- |
| 1.88 nM | CC(C)[C@@H]1NC(=O)[C@H](C(C)C)NC(=O)[C@@H]2CCCCNC(=O)Cn3cc(c4ccccc43)C[C@H](NC(=O)[C@H](CC(N)=O)NC(=O)[C@H](CO)NC1=O)C(=O)N[C@@H](Cc1ccc(C(=O)O)cc1)C(=O)N[C@@H](CCCCN)C(=O)N[C@@H](Cc1c[nH]c3ccc(O)cc13)C(=O)NC(C)(C)C(=O)N[C@@H](C(C)C)C(=O)N[C@H](C(=O)NCC(=O)N1CCC[C@H]1C(=O)N[C@H](CO)C(=O)N[C@H](CO)C(=O)N[C@H](CO)C(=O)NCCCC[C@H](NC(=O)CC[C@H](NC(=O)CC[C@H](NC(=O)CCCc1ccc(I)cc1)C(=O)O)C(=O)O)C(N)=O)CSCC(=O)N[C@@H](Cc1ccc(C(=O)O)cc1)C(=O)N2C [Compound 14] ({CH2CO}-[Phe(4-COOH)][NMeK]VVSN[Trp(1-CH2CO)][Phe(4-COOH)]K[Trp(5-OH)][Aib]VCGP[dS][dS][dS]-X10; lactam 2-7; thioether N-13) |
| 2.08 nM | CC(C)[C@@H]1NC(=O)[C@H](C(C)C)NC(=O)[C@@H]2CCCCNC(=O)Cn3cc(c4ccccc43)C[C@H](NC(=O)[C@H](CC(N)=O)NC(=O)[C@H](CO)NC1=O)C(=O)N[C@@H](Cc1ccc(C(=O)O)cc1)C(=O)N[C@@H](CCCCN)C(=O)N[C@@H](Cc1c[nH]c3ccc(O)cc13)C(=O)NC1(CCN(CC(=O)O)CC1)C(=O)N[C@@H](C(C)C)C(=O)N[C@H](C(=O)NCCCC[C@H](NC(=O)CC[C@H](NC(=O)CC[C@H](NC(=O)CCCc1ccc(I)cc1)C(=O)O)C(=O)O)C(N)=O)CSCC(=O)N[C@@H](Cc1ccc(C(=O)O)cc1)C(=O)N2C [Compound 8] ({CH2CO}-[Phe(4-COOH)][NMeK]VVSN[Trp(1-CH2CO)][Phe(4-COOH)]K[Trp(5-OH)][X7]VC-X10; lactam 2-7; thioether N-13) |
